Literature values as cited in US20190233345A1, “AGRICULTURAL SYSTEMS, COMPOSITIONS AND METHODS FOR INCREASING CROP YIELD” (E. I. DU PONT DE NEMOURS AND COMPANY, priority 2016, published 2019).

Assays:
[1] = test system: lepidopteran pests of corn (including Army Worm; Spodoptera frugiperda)
[2] = test system: lepidopteran pests of soy (including Army Worm; Spodoptera frugiperda and Velvet Bean Caterpillar (Anticarsia gemmatalis))

| SMILES | LD-50 [1] | LD-50 [2] |
| --- | --- | --- |
| CNC(=O)c1cc(C#N)cc(C)c1NC(=O)c1cc(Br)nn1-c1ncccc1Cl [HGW, cyantraniliprole] | 50-60 ppb | 50-60 ppb |
| CNC(=O)c1cc(Cl)cc(C)c1NC(=O)c1cc(Br)nn1-c1ncccc1Cl [Prototype E2Y, chlorantraniliprole] | 15-20 ppb | 15-20 ppb |
